One data set has as its system p-MEK. Put plainly: Western blot analysis of p-MEK in U937 cells. It is filed as cell-based. Conditions: PMA/TPA 200 nM stimulation. Here is the method: FIG. 1. U937 cells were treated with Formula II prepared as described in Example 4 [i.e. 3-(2-aminoethyl)-5-(3-cyclohexylpropylidene)thiazolidine-2,4-dione] for 1 h, then stimulated with PMA (200 nM) for 30 min. Lysates were analyzed for p-Akt, p-MEK, p-ERK and α-tubulin by western blot analysis.
Cells (5×10^5 per ml) were treated with various concentrations of test compound at 37° C. (5% CO2) for 3 hrs, then stimulated with TPA at a final concentration of 200 nM for 20 min. Samples from whole-cell pellets were prepared and 30 μg protein for each condition was subjected to SDS-PAGE, transferred onto a PVDF membrane, and blocked with 5% fat-free milk for 30 min. The membrane is probed with primary antibodies overnight at 4° C. followed by incubation with horseradish peroxidase-labeled anti-mouse IgG (1:5000, BD Biosciecne). The immunoreactive bands are detected by chemiluminescence methods (Pierce) and visualized on Kodak Omat film. The following primary antibodies were used: phospho-p44/42 MAPK (ERK1/2, Thr202/Tyr204), p44/42 MAPK, phospho-p90RSK (Thr359/Ser363), RSK1/RSK2/RSK3 (Cell Signaling). Blots were reprobed with antibodies against α-tubulin to ensure equal loading and transfer of proteins.
A general note: In western blotting, separated proteins are transferred to a membrane and probed.

The subject of a further data set is DU145. Put plainly: Cell viability assay. In kind it is cell-based. The following applies: Homo sapiens, DU-145, DU145 cells, 24 hrs, read-out: Inhibition of cancer cell proliferation IC50. On the procedure:
(§1) Cells were cultured at a density of 5×10^4 (U937) or 1×10^4 (PC-3, DU145, M12, HT29) cells per well in flat bottomed 96-well plates and treated with various concentrations of test compound at 37° C. (5% CO2). After 24 h, 20 μL of CellTiter 96® Aqueous One Solution Reagent (Promega, Madison, Wis.) was added to each well according to the manufacturer's instructions. After 1 hour, the cell viability was determined by measuring the absorbance at 490 nm using a micro-plate reader.

Another data set has as its system M12. Kind of data set: Cell viability assay. In kind it is cell-based. Conditions: M12 cells, 24 hrs, read-out: Inhibition of cancer cell proliferation IC50. On the procedure: as §1
For another data set, the system named is PC-3. Kind of data set: Cell viability assay. It is filed as cell-based. The following applies: Homo sapiens, PC-3 cells, 24 hrs, read-out: Inhibition of cancer cell proliferation IC50. Here is the method:
as §1

Another data set relates to U937. Kind of data set: Cell viability assay. Conditions: Homo sapiens, U-937, U937 cells, 24 hrs, read-out: Inhibition of cancer cell proliferation IC50. It is filed as cell-based. On the procedure: as §1
A further data set can be described thus: Toxicity studies in mice. Conditions: B6C3F1 mice, 20 mg/kg orally, 21 days. It is filed as in vivo. Here is the method: Female B6C3F1 mice (12/group) were given example 4 orally at 30 mg/kg, 50 mg/kg and 80 mg/kg dosage or example 820 mg/kg orally for 21 days.

With `O=C(NOCC1CC1)c1ccc(F)c(F)c1Nc1ccc(I)cc1Cl` [PD184352, reference compound], the “p-MEK level (western blot)” value in the data set on p-MEK is “dose-dependent increase in the p-MEK levels”.

As to `NCCN1C(=O)S/C(=C\CCc2ccccc2)C1=O` [Example 8, 3-(2-aminoethyl)-5-(3-phenylpropylidene)thiazolidine-2,4-dione], the IC50 with DU145 is 30.8 µM; with M12 it was 14.8 µM; with PC-3, 14.6 µM; in the data set with U937 it was 12.2 µM. In addition, the “effects on general health and body weight” value in “Toxicity studies in mice” is “no effects on general health and body weight were observed”.

The values are drawn from patent US20110166191A1, “3-(2-amino-ethyl)-5-(3-cyclohexyl-propylidene)-thiazolidine-2,4-dione and its derivatives as multiple signaling pathway inhibitors and for the treatment of cancer” (priority 2010, published 2011).
